According to US9790230B2 (Hoffmann-La Roche Inc., priority 2015, dated 2017):

Columns and labels:
rat TAAR1 = rat TAAR1 (Rattus norvegicus (Rat), UniProt Q923Y9); experiment: Radioligand binding assay on rat TAAR1;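 also: membranes from HEK293 cells stably transfected with rat TAAR1, tritiated TAAR1 radioligand, 1 h incubation at 4 °C, nonspecific binding determined with excess unlabeled ligand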
Description: (§1) Membrane Preparation and Radioligand Binding.
HEK-293 cells stably expressing rat TAAR1 were maintained at 37° C. and 5% CO2 in DMEM high glucose medium, containing fetal calf serum (10%, heat inactivated for 30 min at 56° C.), penicillin/streptomycin (1%), and 375 μg/ml geneticin (Gibco). Cells were released from culture flasks using trypsin/EDTA, harvested, washed twice with ice-cold PBS (without Ca^2+ and Mg^2+), pelleted at 1'000 rpm for 5 min at 4° C., frozen and stored at −80° C. Frozen pellets were suspended in 20 ml HEPES-NaOH (20 mM, pH 7.4) containing 10 mM EDTA and homogenized with a Polytron (PT 6000, Kinematica) at 14′000 rpm for 20 s. The homogenate was centrifuged at 48'000×g for 30 min at 4° C. Subsequently, the supernatant was removed and discarded, and the pellet resuspended in 20 ml HEPES-NaOH (20 mM, pH 7.4) containing 0.1 mM EDTA using the Polytron (20 s at 14'000 rpm). This procedure was repeated and the final pellet resuspended in HEPES-NaOH containing 0.1 mM EDTA and homogenized using the Polytron. Typically, aliquots of 2 ml membrane portions were stored at −80° C. With each new membrane batch the dissociation constant (Kd) was determined via a saturation curve. […] Nonspecific binding was defined as the amount of 3 [H]—(S)-4-[(ethyl-phenyl-amino)-methyl]-4,5-dihydro-oxazol-2-ylamine bound in the presence of 10 M unlabeled ligand. All compounds were tested at a broad range of concentrations (10 pM to 10 μM) in duplicates. […] The 96 deep well plates were incubated for 1 hr at 4° C. Incubations were terminated by rapid filtration through Unifilter-96 plates (Packard Instrument Company) and glass filters GF/C (Perkin Elmer) presoaked for 1 hr in polyethylenimine (0.3%) and washed 3 times with 1 ml of cold binding buffer. After addition of 45 μl of Microscint 40 (PerkinElmer) the Unifilter-96 plate was sealed and after 1 hr the radioactivity counted using a TopCount Microplate Scintillation Counter (Packard Instrument Company).

mouse TAAR1 = mouse TAAR1 (Mus musculus (Mouse), UniProt Q923Y8); experiment: Radioligand binding assay on mouse TAAR1
Sequence of mouse TAAR1 (Q923Y8 whole entry): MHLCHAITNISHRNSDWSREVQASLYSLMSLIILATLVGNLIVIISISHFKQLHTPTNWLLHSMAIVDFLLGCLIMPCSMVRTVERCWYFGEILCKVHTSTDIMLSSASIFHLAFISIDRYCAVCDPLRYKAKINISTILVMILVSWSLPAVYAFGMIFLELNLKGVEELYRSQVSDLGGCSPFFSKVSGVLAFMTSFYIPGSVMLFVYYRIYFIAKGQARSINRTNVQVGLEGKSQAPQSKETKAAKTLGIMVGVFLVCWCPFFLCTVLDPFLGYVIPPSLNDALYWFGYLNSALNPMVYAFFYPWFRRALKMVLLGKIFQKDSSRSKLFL
Description: Radioligand Binding Assay on Mouse TAAR1
as §1
HEK-293 cells stably expressing mouse TAAR1 were maintained at 37° C. and 5% CO2 in DMEM high glucose medium, containing fetal calf serum (10%, heat inactivated for 30 min at 56° C.), penicillin/streptomycin (1%), and 375 μg/ml geneticin (Gibco). Cells were released from culture flasks using trypsin/EDTA, harvested, washed twice with ice-cold PBS (without Ca^2+ and Mg^2+), pelleted at 1'000 rpm for 5 min at 4° C., frozen and stored at −80° C. Frozen pellets were suspended in 20 ml HEPES-NaOH (20 mM, pH 7.4) containing 10 mM EDTA and homogenized with a Polytron (PT 6000, Kinematica) at 14'000 rpm for 20 s. The homogenate was centrifuged at 48'000×g for 30 min at 4° C. Subsequently, the supernatant was removed and discarded, and the pellet resuspended in 20 ml HEPES-NaOH (20 mM, pH 7.4) containing 0.1 mM EDTA using the Polytron (20 s at 14'000 rpm). This procedure was repeated and the final pellet resuspended in HEPES-NaOH containing 0.1 mM EDTA and homogenized using the Polytron. Typically, aliquots of 2 ml membrane portions were stored at −80° C. With each new membrane batch the dissociation constant (Kd) was determined via a saturation curve. The TAAR1 radioligand ^3[H]—(S)-4-[(ethyl-phenyl-amino)-methyl]-4,5-dihydro-oxazol-2-ylamine (described in WO 2008/098857) was used at a concentration equal to the calculated Kd value, that was usually around 0.7 nM, resulting in the binding of approximately 0.5% of the radioligand and a specific binding representing approximately 70% of the total binding. Nonspecific binding was defined as the amount of ^3[H]—(S)-4-[(ethyl-phenyl-amino)-methyl]-4,5-dihydro-oxazol-2-ylamine bound in the presence of 10 M unlabeled ligand. All compounds were tested at a broad range of concentrations (10 pM to 10 μM) in duplicates. […] The 96 deep well plates were incubated for 1 hr at 4° C. Incubations were terminated by rapid filtration through Unifilter-96 plates (Packard Instrument Company) and glass filters GF/C (Perkin Elmer) presoaked for 1 hr in polyethylenimine (0.3%) and washed 3 times with 1 ml of cold binding buffer. After addition of 45 μl of Microscint 40 (PerkinElmer) the Unifilter-96 plate was sealed and after 1 hr the radioactivity counted using a TopCount Microplate Scintillation Counter (Packard Instrument Company).

Sequence of rat TAAR1 (Q923Y9 whole entry): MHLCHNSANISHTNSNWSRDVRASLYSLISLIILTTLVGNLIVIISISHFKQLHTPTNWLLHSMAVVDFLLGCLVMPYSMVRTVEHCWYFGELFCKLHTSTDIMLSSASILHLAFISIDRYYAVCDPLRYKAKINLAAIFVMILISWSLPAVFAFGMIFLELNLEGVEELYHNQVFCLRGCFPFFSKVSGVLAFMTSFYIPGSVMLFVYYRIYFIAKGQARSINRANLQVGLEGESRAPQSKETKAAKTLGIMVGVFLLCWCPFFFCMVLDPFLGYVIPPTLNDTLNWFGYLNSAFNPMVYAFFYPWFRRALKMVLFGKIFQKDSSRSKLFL

| Structure (SMILES) | Ki (rat TAAR1) | Ki (mouse TAAR1) |
| --- | --- | --- |
| FC(F)(F)Oc1ccc(CNc2ccc([C@H]3O[C@@H]4CN[C@H]3C4)cc2)cc1 [Example 52, 4-[(1S,3R,4S)-2-Oxa-5-azabicyclo[2.2.1]heptan-3-yl]-N-[[4-(trifluoromethoxy)phenyl]methyl]aniline] | 194 nM | 4.3 nM |
| O=C(NCc1ccc(Cl)cc1)c1ccc([C@@H]2O[C@H]3CN[C@@H]2C3)cc1 [Example 97, N-[(4-Chlorophenyl)methyl]-4-[(1R,3S,4R)-2-oxa-5-azabicyclo[2.2.1]heptan-3-yl]benzamide] | > 1450 nM | 51.1 nM |
| CCOc1ccc(C(=O)Nc2ccc([C@@H]3O[C@H]4CN[C@@H]3C4)cc2)cn1 [Example 13, 6-Ethoxy-N-[4-[(1R,3S,4R)-2-oxa-5-azabicyclo[2.2.1]heptan-3-yl]phenyl]pyridine-3-carboxamide] | 346000 nM | 6.3 nM |
| FC(F)(F)c1cnc(Nc2ccc([C@@H]3O[C@H]4CN[C@@H]3C4)cc2)nc1 [Example 31, N-[4-[(1R,3S,4R)-2-Oxa-5-azabicyclo[2.2.1]heptan-3-yl]phenyl]-5-(trifluoromethyl)pyrimidin-2-amine] | 77.7 nM | 22.1 nM |
| FC(F)(F)c1ccc(Nc2ccc([C@@H]3O[C@H]4CN[C@@H]3C4)cc2)nc1 [Example 11, N-[4-[(1R,3S,4R)-2-Oxa-5-azabicyclo[2.2.1]heptan-3-yl]phenyl]-5-(trifluoromethyl)pyridin-2-amine] | 15.3 nM | 3.9 nM |
| c1ccc([C@H]2O[C@@H]3CN[C@H]2C3)nc1 [Example 105, (1S,3S,4S)-3-(2-Pyridyl)-2-oxa-5-azabicyclo[2.2.1]heptane] | 324 nM | 46.5 nM |
| O=C(Nc1ccc([C@@H]2O[C@H]3CN[C@@H]2C3)cc1)c1cccc(Cl)c1 [Example 10, 3-Chloro-N-[4-[(1R,3S,4R)-2-oxa-5-azabicyclo[2.2.1]heptan-3-yl]phenyl]benzamide] | 55 nM | 4.2 nM |
| CCOc1ccc(C(=O)Nc2ccc([C@H]3O[C@@H]4CN[C@H]3C4)cc2)cc1 [Example 17, 4-Ethoxy-N-[4-[(1S,3R,4S)-2-oxa-5-azabicyclo[2.2.1]heptan-3-yl]phenyl]benzamide] | 693 nM | 6.4 nM |
| O=C(Nc1ccc([C@@H]2O[C@H]3CN[C@@H]2C3)cc1)c1ccc(OCC2CC2)cc1 [Example 12, 4-(Cyclopropylmethoxy)-N-[4-[(1R,3S,4R)-2-oxa-5-azabicyclo[2.2.1]heptan-3-yl]phenyl]benzamide] | 134 nM | 6.7 nM |
| COCCCNc1ccc([C@H]2O[C@@H]3CN[C@H]2C3)cc1 [Example 65, N-(3-Methoxypropyl)-4-[(1S,3R,4S)-2-oxa-5-azabicyclo[2.2.1]heptan-3-yl]aniline] | 70.2 nM | 2070 nM |
| FC(F)(F)COc1nccc(Nc2ccc([C@@H]3O[C@H]4CN[C@@H]3C4)cc2)n1 [Example 83, N-[4-[(1R,3S,4R)-2-Oxa-5-azabicyclo[2.2.1]heptan-3-yl]phenyl]-2-(2,2,2-trifluoroethoxy)pyrimidin-4-amine] | 190 nM | 9.7 nM |
| O=C(Nc1ccc([C@H]2O[C@@H]3CN[C@H]2C3)cc1)c1ccnc(C(F)(F)F)c1 [Example 25, N-[4-[(1S,3R,4S)-2-Oxa-5-azabicyclo[2.2.1]heptan-3-yl]phenyl]-2-(trifluoromethyl)pyridine-4-carboxamide] | 327 nM | 22.4 nM |
| O=C(Nc1ccc(Cl)cc1)c1ccc([C@@H]2O[C@H]3CN[C@@H]2C3)cc1 [Example 85] | 1080 nM | 16.4 nM |
| Clc1ccc(CNc2ccc([C@H]3O[C@@H]4CN[C@H]3C4)cc2)cc1 [Example 38, N-[(4-Chlorophenyl)methyl]-4-[(1S,3R,4S)-2-oxa-5-azabicyclo[2.2.1]heptan-3-yl]aniline] | 167 nM | 562 nM |
| O=C(Nc1ccc(Cl)nc1)c1ccc([C@H]2O[C@@H]3CN[C@H]2C3)cc1 [Example 60, N-(6-Chloro-3-pyridyl)-4-[(1S,3R,4S)-2-oxa-5-azabicyclo[2.2.1]heptan-3-yl]benzamide] | 5340 nM | 3.3 nM |
| O=C(Nc1cccc([C@@H]2O[C@H]3CN[C@@H]2C3)c1)c1ccc(Cl)cc1 [Example 2, 4-Chloro-N-[3-[(1R,3S,4R)-2-oxa-5-azabicyclo[2.2.1]heptan-3-yl]phenyl]benzamide] | 79.4 nM | 2510 nM |
| Clc1ccc(Nc2ccc([C@@H]3O[C@H]4CN[C@@H]3C4)cc2)nc1 [Example 24, 5-Chloro-N-[4-[(1R,3S,4R)-2-oxa-5-azabicyclo[2.2.1]heptan-3-yl]phenyl]pyridin-2-amine] | 31.8 nM | 3.3 nM |
| O=C(Nc1ccc(Br)cc1)c1ccc([C@H]2O[C@@H]3CN[C@H]2C3)cc1 [Example 56, N-(4-Bromophenyl)-4-[(1S,3R,4S)-2-oxa-5-azabicyclo[2.2.1]heptan-3-yl]benzamide] | 50.1 nM | 0.9 nM |

| Structure (SMILES) | Ki (rat TAAR1) | Ki (mouse TAAR1) |
| --- | --- | --- |
| O=C(CCC(F)(F)F)Nc1ccc([C@@H]2O[C@H]3CN[C@@H]2C3)cc1 [Example 91, 4,4,4-Trifluoro-N-[4-[(1R,3S,4R)-2-oxa-5-azabicyclo[2.2.1]heptan-3-yl]phenyl]butanamide] | > 1450 nM | 31 nM |
| CCOc1ccc(NC(=O)c2ccc([C@@H]3O[C@H]4CN[C@@H]3C4)cc2)cn1 [Example 95, N-(6-Ethoxy-3-pyridyl)-4-[(1R,3S,4R)-2-oxa-5-azabicyclo[2.2.1]heptan-3-yl]benzamide] | > 1450 nM | 61.3 nM |
| O=C(Nc1ccc(Cl)nc1)c1ccc([C@@H]2O[C@H]3CN[C@@H]2C3)cc1 [Example 94, N-(6-Chloro-3-pyridyl)-4-[(1R,3S,4R)-2-oxa-5-azabicyclo[2.2.1]heptan-3-yl]benzamide] | > 1450 nM | 25.1 nM |
| CCc1n[nH]c(C(=O)Nc2ccc([C@@H]3O[C@H]4CN[C@@H]3C4)cc2)c1Cl [Example 76, 4-Chloro-3-ethyl-N-[4-[(1R,3S,4R)-2-oxa-5-azabicyclo[2.2.1]heptan-3-yl]phenyl]-1H-pyrazole-5-carboxamide] | 84.2 nM | 4.7 nM |
| O=C(Nc1ccc(C(F)(F)F)cc1)Nc1cccc([C@@H]2O[C@H]3CN[C@@H]2C3)c1 [Example 3, 1-[3-[(1R,3S,4R)-2-Oxa-5-azabicyclo[2.2.1]heptan-3-yl]phenyl]-3-[4-(trifluoromethyl)phenyl]urea] | 2.9 nM | 986 nM |
| O=C(Nc1ccc([C@H]2O[C@@H]3CN[C@H]2C3)cc1)c1ccc(C(F)(F)F)cn1 [Example 36, N-[4-[(1S,3R,4S)-2-Oxa-5-azabicyclo[2.2.1]heptan-3-yl]phenyl]-5-(trifluoromethyl)pyridine-2-carboxamide] | 1280 nM | 32.5 nM |
| c1ccc([C@@H]2O[C@H]3CN[C@@H]2C3)nc1 [Example 104, (1R,3R,4R)-3-(2-Pyridyl)-2-oxa-5-azabicyclo[2.2.1]heptane] | > 1500 nM | > 1490 nM |
| O=C(Nc1ccc([C@H]2O[C@@H]3CN[C@H]2C3)cc1)c1ccc(OCC(F)(F)F)nc1 [Example 16, N-[4-[(1S,3R,4S)-2-Oxa-5-azabicyclo[2.2.1]heptan-3-yl]phenyl]-6-(2,2,2-trifluoroethoxy)pyridine-3-carboxamide] | 142 nM | 11.8 nM |
| O=C(COCC(F)(F)F)Nc1ccc([C@H]2O[C@@H]3CN[C@H]2C3)cc1 [Example 66, N-[4-[(1S,3R,4S)-2-Oxa-5-azabicyclo[2.2.1]heptan-3-yl]phenyl]-2-(2,2,2-trifluoroethoxy)acetamide] | 3960 nM | 12.3 nM |
| CCCCc1cc(C(=O)Nc2ccc([C@@H]3O[C@H]4CN[C@@H]3C4)cc2)[nH]n1 [Example 93, 3-Butyl-N-[4-[(1R,3S,4R)-2-oxa-5-azabicyclo[2.2.1]heptan-3-yl]phenyl]-1H-pyrazole-5-carboxamide] | 80.3 nM | 4.2 nM |
| FC(F)(F)c1nccc(Nc2ccc([C@H]3O[C@@H]4CN[C@H]3C4)cc2)n1 [Example 21, N-[4-[(1S,3R,4S)-2-Oxa-5-azabicyclo[2.2.1]heptan-3-yl]phenyl]-2-(trifluoromethyl)pyrimidin-4-amine] | 633 nM | 19.7 nM |
| O=C(Nc1ccc(F)cc1)c1ccc([C@H]2O[C@@H]3CN[C@H]2C3)cc1 [Example 57, N-(4-Fluorophenyl)-4-[(1S,3R,4S)-2-oxa-5-azabicyclo[2.2.1]heptan-3-yl]benzamide] | 45.8 nM | 3.4 nM |
| O=C(Nc1ccc([C@H]2O[C@@H]3CN[C@H]2C3)cc1)c1ccnc(C(F)(F)F)n1 [Example 42, N-[4-[(1S,3R,4S)-2-Oxa-5-azabicyclo[2.2.1]heptan-3-yl]phenyl]-2-(trifluoromethyl)pyrimidine-4-carboxamide] | 10000 nM | 337 nM |
| c1ccc([C@H]2O[C@@H]3CN[C@H]2C3)cc1 [Example 9, (1S,3R,4S)-3-Phenyl-2-oxa-5-azabicyclo[2.2.1]heptane] | 369 nM | 34.9 nM |
| CCc1ncc(C(=O)Nc2ccc([C@H]3O[C@@H]4CN[C@H]3C4)cc2)cn1 [Example 34, 2-Ethyl-N-[4-[(1S,3R,4S)-2-oxa-5-azabicyclo[2.2.1]heptan-3-yl]phenyl]pyrimidine-5-carboxamide] | 457 nM | 56.3 nM |
| O=C(Nc1ccc([C@@H]2O[C@H]3CN[C@@H]2C3)cc1)c1ccc(Cl)cc1 [Example 7, 4-Chloro-N-[4-[(1R,3S,4R)-2-oxa-5-azabicyclo[2.2.1]heptan-3-yl]phenyl]benzamide] | 106 nM | 4.4 nM |
| CCOc1n[nH]c(C(=O)Nc2ccc([C@@H]3O[C@H]4CN[C@@H]3C4)cc2)c1Cl [Example 98, 4-Chloro-3-ethoxy-N-[4-[(1R,3S,4R)-2-oxa-5-azabicyclo[2.2.1]heptan-3-yl]phenyl]-1H-pyrazole-5-carboxamide] | 74.5 nM | 6.8 nM |
| O=C(Nc1ccc([C@H]2O[C@@H]3CN[C@H]2C3)cc1)c1ccc(C(F)(F)F)nc1 [Example 44, N-[4-[(1S,3R,4S)-2-Oxa-5-azabicyclo[2.2.1]heptan-3-yl]phenyl]-6-(trifluoromethyl)pyridine-3-carboxamide] | 84.8 nM | 11.1 nM |
